Consider two compounds from patent publication US20030176456A1, “Methods for reducing alcohol cravings in chronic alcoholics” (priority 2001, published 2003).

For data set [1] the following is noted: Rowlett et al., submitted; cited from earlier work.
In another data set the test system is GABAA α4β3γ2 receptors. The experiment in a line: Xenopus oocyte expression assay, modulation of GABA current. It counts as cell-based, rat.
Another data set has as its target T1, α1β3γ2 GABAA receptor (Homo sapiens, UniProt P14867+P18507).
T1 construct: expressed in transfected cells
The settings on record: recombinant receptors (Cox et al., 1995); cited from earlier work.

Data set [2] has as its system HAD-1 rats. It counts as in vivo, rat. The settings on record: i.p.; chlordiazepoxide 10 mg/kg, βCCt 15 mg/kg; 10 min open field. As to the method: (§1) Ambulatory count in the open field was recorded individually for 10 min in a plexiglas chamber (42 cm×42 cm 30 cm) using a Digiscan activity monitoring system (Acuscan Electronics, Columbus, Ohio, USA) (for details of the monitoring system see June et al., 1998d).
(§2) βCCt (15 mg/kg i.p.) and chlordiazepoxide (10 mg/kg i.p.) were administered 15 and 30 min, respectively, prior to the rats being placed in the open field. EtOH (1.25 g/kg) was given 5 min prior to placing the rats in the open field. When βCCt was given in combination with either chlordiazepoxide or EtOH, it was given 10 min prior to chlordiazepoxide and EtOH. As noted above, βCCt was administered in Tween-20 solution, while all other drugs were mixed in sterile saline. Animals were tested between 9 am-3 pm.
(§3) Ambulatory count in the open field was recorded individually for 10 min in a plexiglas chamber (42 cm×42 cm 30 cm) using a Digiscan activity monitoring system (Acuscan Electronics, Columbus, Ohio, USA) (for details of the monitoring system see June et al., 1998b).
(§4) βCCt (5-60 mg/kg i.p.) and chlordiazepoxide (2.5, 5, 10 mg/kg i.p.) were administered 15 and 30 min, respectively, prior to being placed in the plus maze or open field. EtOH (1.25 g/kg) was given 5 min prior to placing the rats in the open field. When βCCt was given in combination with either chlordiazepoxide or EtOH, it was given 10 min prior to chlordiazepoxide and EtOH. As noted above, βCCt was administered in Tween-20 solution, while all other drugs were mixed in sterile saline. Animals were tested between 9am-3 pm.

Data set [3] relates to P rats. It is filed as in vivo, rat. The note with it: i.p.; chlordiazepoxide 10 mg/kg, βCCt 15 mg/kg; 10 min open field. On the procedure: as §1, §2, §3, §4
Another data set deals with mice. The note with it: doses as high as 60 mg/kg (Griebel et al., 1999); cited from earlier work.
Data set [4] relates to HAD-1 rats. It is filed as in vivo, rat. As to the method:
(§5) Rats were placed in the middle of the automated plus maze (Acuscan Electronics, Columbus, Ohio, USA) with two walled and open arms under dim illumination (for details see June et al., 1998b).
as §4
(§6) HAD-1 asnd P rats were randomly assigned to each of the […] drug treatment groups (Veh, 5, 15, 30, 60 mg/kg). A between group ANOVA with drug treatment as the independent factor was conducted for HAD-1 (n=8-12 per treatment group) [total N=42] and P (n=7-12 per treatment group) [total N=42] rats on the plus-maze test.

Data set [5] concerns P rats. It counts as in vivo, rat. As to the method: as §5, §4, §6

T1 sequence (P14867 28-456): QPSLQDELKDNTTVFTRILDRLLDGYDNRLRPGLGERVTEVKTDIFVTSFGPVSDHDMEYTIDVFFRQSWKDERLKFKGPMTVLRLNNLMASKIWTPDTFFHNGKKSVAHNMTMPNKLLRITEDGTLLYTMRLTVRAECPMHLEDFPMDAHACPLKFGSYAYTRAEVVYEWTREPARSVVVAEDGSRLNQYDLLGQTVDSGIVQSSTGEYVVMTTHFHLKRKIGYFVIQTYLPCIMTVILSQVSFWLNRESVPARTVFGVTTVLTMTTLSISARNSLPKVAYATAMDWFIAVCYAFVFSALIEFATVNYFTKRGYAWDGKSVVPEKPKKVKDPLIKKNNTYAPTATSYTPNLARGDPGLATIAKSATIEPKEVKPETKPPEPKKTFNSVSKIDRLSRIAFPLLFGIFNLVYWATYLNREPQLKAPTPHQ
T1 sequence (P28472 26-473 partner): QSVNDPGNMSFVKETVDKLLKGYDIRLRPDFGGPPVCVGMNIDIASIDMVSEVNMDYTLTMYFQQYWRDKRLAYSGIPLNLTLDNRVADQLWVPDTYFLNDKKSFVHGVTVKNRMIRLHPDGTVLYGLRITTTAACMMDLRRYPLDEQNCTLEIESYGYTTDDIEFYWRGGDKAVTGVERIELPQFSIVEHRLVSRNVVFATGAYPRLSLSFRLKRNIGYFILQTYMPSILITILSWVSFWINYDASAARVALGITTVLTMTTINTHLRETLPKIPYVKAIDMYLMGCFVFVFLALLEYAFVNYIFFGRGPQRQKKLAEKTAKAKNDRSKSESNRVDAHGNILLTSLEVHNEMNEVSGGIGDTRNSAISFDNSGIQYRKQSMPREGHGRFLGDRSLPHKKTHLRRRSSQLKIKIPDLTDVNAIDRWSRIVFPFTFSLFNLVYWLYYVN
T1 sequence (P18507 40-475): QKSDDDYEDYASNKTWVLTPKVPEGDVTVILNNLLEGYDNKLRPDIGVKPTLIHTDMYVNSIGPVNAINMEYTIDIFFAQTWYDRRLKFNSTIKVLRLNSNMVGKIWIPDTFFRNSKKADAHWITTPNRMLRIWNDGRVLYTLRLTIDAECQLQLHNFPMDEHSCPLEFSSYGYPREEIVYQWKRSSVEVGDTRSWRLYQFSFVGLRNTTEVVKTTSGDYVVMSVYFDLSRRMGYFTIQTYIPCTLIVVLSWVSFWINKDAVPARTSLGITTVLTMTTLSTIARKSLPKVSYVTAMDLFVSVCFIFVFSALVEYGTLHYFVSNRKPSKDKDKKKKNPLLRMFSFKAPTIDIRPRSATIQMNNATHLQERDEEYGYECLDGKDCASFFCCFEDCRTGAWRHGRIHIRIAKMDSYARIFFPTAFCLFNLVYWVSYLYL

Take `CCCOc1cc2c(cn1)[nH]c1ccccc12.Cl` [3-PBC, 3-Propoxy-β-carboline hydrochloride]: the “antagonism in zolpidem discrimination” value in data set [1] is given as “surmountable antagonism”. The “% of GABA response, α4” value in the data set on GABAA α4β3γ2 receptors is 129±3%.
On to `CC(C)(C)OC(=O)c1cc2c(cn1)[nH]c1ccccc12` [βCCt, β-carboline-3-carboxylate t-butyl ester], for which the “selectivity for A1 over the A5 subtype” value on α1β3γ2 GABAA receptor was over 110 fold. Also, the “selectivity for GABAA1 over the A2 and A3 receptors” value on α1β3γ2 GABAA receptor is over 10 fold. In addition, the “locomotor activity, drug given alone” value with HAD-1 rats [2] and in the data set with P rats [3] was “did not produce any intrinsic effects” in each case. In addition, the “intrinsic activity in the open field” value with mice is “failed to produce intrinsic activity”. In addition, the “sedation in the plus maze” value in the data set with HAD-1 rats [4] (60 mg/kg i.p., data not shown) was “marked sedative profile”. Also, the “effect on anxiolytic activity produced by chlordiazepoxide (5.0 mg/kg)” value in the data set on HAD-1 rats [4] (5, 15 mg/kg i.p.) is “neither dose of βCCt (5, 15 mg/kg, i.p.) altered the anxiolytic activity”; in the data set on P rats [5] (5, 15 mg/kg i.p.), “neither dose of βCCt (5, 15 mg/kg, i.p.) altered the anxiolytic activity”. For the same compound, the “number of closed arm entries” value is recorded as “without effect” in the data set with HAD-1 rats [4] (i.p.) and “significant reduction in performance only with the 60 mg/kg dose” with P rats [5] (i.p. 5-60 mg/kg).
